For this data set the following is noted: Crystal; DTA.

Numbers after ± are expanded uncertainties.

With `CCCCn1cc[n+](C)c1.[Cl-]` [1-butyl-3-methylimidazolium chloride], the Normal melting temperature was determined as 65.0 ± 1 °C.

(Values after the NIST ThermoML archive (doi:10.1016/j.tca.2010.01.023).)
